The numbers were not newly measured in US6534676B2, “Method to treat chronic heart failure and/or elevated cholesterol levels using 3,5-diiodothyropropionic acid and method to prepare same” (The Arizona Board of Regents on Behalf of the University of …, priority 2001, dated 2003), which cites them from elsewhere.

What is called half-life is how long it takes for the measured level to halve.

For data set [1] the following is noted: background statement; cited from earlier work.
The conditions of data set [2]: short-term intravenous, patients with advanced congestive failure; cited from earlier work.

As for `NC(Cc1cc(I)c(Oc2cc(I)c(O)c(I)c2)c(I)c1)C(=O)O` [Thyroxine, 3,5,3′5′-L-thyronine], the half-life in data set [1] was 140 to 170 h. As for `N[C@@H](Cc1cc(I)c(Oc2ccc(O)c(I)c2)c(I)c1)C(=O)O` [T3, 3′,3,5-L-triiodothyrone], the half-life entry in data set [1] is given as “two days or less”. The “cardiac output and arterial vascular resistance” value in data set [2] was “improve cardiac output and decrease arterial vascular resistance”.
